Assay results from patent publication US10391111B2, “Composition for preventing or treating cervical cancer including gypenoside LXXV” (INTELLIGENT SYNTHETIC BIOLOGY CENTER, priority 2015, dated 2019).
Entries after “also recorded” stand apart in the source; their conditions may differ. Read-outs that look alike come from different tables or passages of the source.

Tested on: HeLa cells
Experiment: MTT assay of HeLa cell viability (cytotoxic / anti-proliferative effect)
Type: cell-based
Conditions: for inhibition of HeLa cells: 50 μM; for effect on cell division: HeLa cells, 2.5 μM to 100 μM; for CC50: read-out: LC50 values against HeLa cells
Experimental: HeLa cells were cultured in DMEM (Dulbecco's Modified Eagle's Medium) containing 10% FBS, 2 mmol/L of glutamine, 100 U/mL penicillin, and […] of streptomycin at 37° C. under 5% CO2 condition. An appropriate amount of GypLXXV in DMSO (dimethyl sulfoxide) was taken according to a final concentration as described and added to the culture medium.
In vitro chemosensitivity was measured by MTT (dimethyl thiazolyl-2,5-diphenyltetrazolium bromide) assay (CellTiter 96® Non-Radioactive Cell Proliferation Assay kit. Promega), 100 μl of HeLa cells were dispensed at a density of 10^4 cells per well in a 96-well plate, and incubated for 24 hrs. To measure anti-proliferative effects of GypLXXV. Rg3(S). Rb1 and GypXVII, 2.5 μM to 100 μM of the compound was diluted with a FBS-free medium, and added to each well. Thereafter, the cells treated with the compound were incubated at 37° C. for 48 hrs, and MTT was added to each well, followed by further incubation for 4 hrs. After aspiration of the culture medium, formazan formed from MTT was dissolved in 100 μl of solubilization/stop solution. Thereafter, optical density of each well was measured at a wavelength of 595 nm using a microplate reader. Results were expressed as LC50 values analyzed using a GraphPad Prism 5 program.

| SMILES | inhibition of HeLa cells (48 hrs) | anti-cancer / anti-proliferative effect compared with the other compounds (FIG. 2) (HeLa cell viability, 48 hrs) | effect on cell division | CC50 (Homo sapiens, HeLa, 48 h) [µM] | CC50 (MTT assay, 48 hrs incubation, 2.5 μM to 100 μM compound, FBS-free medium) [µM] |
| --- | --- | --- | --- | --- | --- |
| CC(C)=CCC[C@](C)(O[C@@H]1O[C@H](CO[C@@H]2O[C@H](CO)[C@@H](O)[C@H](O)[C@H]2O)[C@@H](O)[C@H](O)[C@H]1O)[C@H]1CC[C@]2(C)[C@@H]1[C@H](O)C[C@@H]1[C@@]3(C)CC[C@H](O)C(C)(C)[C@@H]3CC[C@]12C [GypLXXV, gypenoside LXXV] | almost all HeLa cells were inhibited | anti-proliferative activity similar to that of Rg3(S); also recorded: higher anti-cancer effects than those of Rb1 or GypXVII | decreased cell division in a dose-dependent manner | 29.9 |  |
| CC(C)=CCC[C@](C)(O)[C@H]1CC[C@]2(C)[C@@H]1[C@H](O)C[C@@H]1[C@@]3(C)CC[C@H](O[C@@H]4O[C@H](CO)[C@@H](O)[C@H](O)[C@H]4O[C@@H]4O[C@H](CO)[C@@H](O)[C@H](O)[C@H]4O)C(C)(C)[C@@H]3CC[C@]12C [Rg3(S), 20(S)-ginsenoside-Rg3, reference compound] | almost all HeLa cells were inhibited |  | decreased cell division in a dose-dependent manner |  | 23.5 |
